Measured values reported in patent publication US9884863B2, “STAT3 inhibitor” (Board of Regents, The University of Texas System, priority 2013, dated 2018).
Where two headings read alike, the source gives them in different places.

Key:
[1] = tested on: MDA-MB-231; test: MTS cell proliferation assay, MDA-MB-231; type: cell-based, human; details: Homo sapiens
Description: (§1) Cancer cells (breast cancer cell lines MCF-7, MDA-MB-361, SKBR3 and MDA-MB-231, pancreatic cancer cell lines AsPC-1. BxPC3 and Panc-1) were seeded in 96-well plates at a density of 1000-2000 cells/well and treated with DMSO, 0.01, 0.1, 1, 5, 10, and 100 mM of STAT3 individual inhibitors for 72 hrs. Proliferation was measured by treating cells with the 3-(4,5-dimethylthiazol-2-yl)-5-(3-carboxymethoxyphenyl)-2-(4-sulfophenyl)-2H-tetrazolium) (MTS) in a CellTiter 96t AQueous Non-Radioactive Cell Proliferation Assay kit from Promega, Madison, Wis., USA). Absorbance of all wells was determined by measuring OD at 550 nm after 1 hr incubation at 37° C. on a 96-well iMark™ Microplate Absorbance Reader (BioRad, Hercules, Calif.).
In Vitro Determination of Effects of Synthesized Compounds on Cancer Cell Proliferation. Cancer cells (breast cancer cell lines MCF-7 and MDA-MB-231, pancreatic cancer cell lines AsPC-1 and Panc-1) were seeded in 96-well plates at a density of 2×10^3 cells/well and treated with DMSO, 0.01, 0.1, 1, 5, 10, and 100 μM of individual STAT3 inhibitors for 72 h. Proliferation was measured by treating cells with the 3-(4,5-dimethylthiazol-2-yl)-5-(3-carboxymethoxyphenyl)-2-(4-sulfophenyl)-2H-tetrazolium) (MTS) in a CellTiter 96t Aqueous Non-Radioactive Cell Proliferation Assay kit (Promega, Madison, Wis., USA). Absorbance of all wells was determined by measuring OD at 550 nm after 1 h incubation at 37° C. on a 96-well iMark™ Microplate Absorbance Reader (BioRad, Hercules, Calif.). Each individual compound was tested in quadruplicate wells for each concentration. […]

[2] = tested on: MCF-7; test: MTS cell proliferation assay, MCF-7; type: cell-based, human
Description: as §1, with “BxPC3 and Panc-1) were seeded in 96-well plates at a density of 1000-2000 cells/well and treated with DMSO, 0.01, 0.1, 1, 5, 10, and 100 mM of STAT3 individual inhibitors for 72 hrs.” left out, “Calif.). Each individual compound was tested in quadruplicate wells for each concentration, and the results were reported as mean absorption±s.e.” for “Calif.).”
In Vitro Determination of Effects of Synthesized Compounds on Cancer Cell Proliferation. Cancer cells (breast cancer cell lines MCF-7 and MDA-MB-231, pancreatic cancer cell lines AsPC-1 and Panc-1) were […], 0.01, 0.1, 1, 5, 10, […] Proliferation was measured by treating cells with the 3-(4,5-dimethylthiazol-2-yl)-5-(3-carboxymethoxyphenyl)-2-(4-sulfophenyl)-2H-tetrazolium) (MTS) in a CellTiter 96t Aqueous Non-Radioactive Cell Proliferation Assay kit (Promega, Madison, Wis., USA). Absorbance of all wells was determined by measuring OD at 550 nm after 1 h incubation at 37° C. on a 96-well iMark™ Microplate Absorbance Reader (BioRad, Hercules, Calif.). Each individual compound was tested in quadruplicate wells for each concentration.

[3] = MDA-MB-231, ER-negative breast cancer, 72 hrs, >10 = no effect, read-out: IC50 MDA-MB-231 (Table 1)
[4] = Homo sapiens, MCF7, 72 h; read-out: IC50 MCF-7 (Table 1)
[5] = MDA-MB-231, 72 h, read-out: IC50 MDA-MB-231 (Table 1)
[6] = Homo sapiens, MCF7, 72 h, read-out: IC50 MCF-7 (Table 1)

melting point	IC50 [1, 3]	IC50 [2, 4]	Structure (SMILES)	further results
262 to 263 °C			N#C/C(=C\c1cccc(O)c1)C(=O)Nc1ccc2c(c1)S(=O)(=O)C=C2 [RMF-1-10, 2-Cyano-N-(1,1-dioxo-1H-1λ^6-benzo[b]thiophen-6-yl)-3-(3-hydroxyphenyl)acrylamide]	
242 to 243 °C			N#C/C(=C\c1ccccc1Cl)C(=O)Nc1ccc2c(c1)S(=O)(=O)C=C2 [RMF-1-33, 3-(2-Chlorophenyl)-2-cyano-N-(1,1-dioxo-1H-1λ^6-benzo[b]thiophen-6-yl)acrylamide]	
242 to 243 °C			N#C/C(=C\c1cccnc1Br)C(=O)Nc1ccc2c(c1)S(=O)(=O)C=C2 [RMF-1-26, 3-(2-Bromopyridin-3-yl)-2-cyano-N-(1,1-dioxo-1H-1λ^6-benzo[b]thiophen-6-yl)acrylamide]	
245 to 246 °C			N#C/C(=C\c1cccc(F)c1)C(=O)Nc1ccc2c(c1)S(=O)(=O)C=C2 [RMF-1-31, 2-Cyano-N-(1,1-dioxo-1H-1λ^6-benzo[b]thiophen-6-yl)-3-(3-fluorophenyl)acrylamide]	
221 to 222 °C			Cc1cccc(/C=C(\C#N)C(=O)Nc2ccc3c(c2)S(=O)(=O)C=C3)n1 [HJC-5-88, 2-Cyano-N-(1,1-dioxo-1H-1λ^6-benzo[b]thiophen-6-yl)-3-(6-methyl-pyridin-2-yl)acrylamide]	
288 to 289 °C			N#C/C(=C\c1ccncc1)C(=O)Nc1ccc2c(c1)S(=O)(=O)C=C2 [RMF-1-23, 2-Cyano-N-(1,1-dioxo-1H-1λ^6-benzo[b]thiophen-6-yl)-3-pyridin-4-yl-acrylamide]	
180 to 181 °C			N#C/C(=C\C1CCCCC1)C(=O)Nc1ccc2c(c1)S(=O)(=O)C=C2 [RMF-1-20, 2-Cyano-3-cyclohexyl-N-(1,1-dioxo-1H-1λ^6-benzo[b]thiophen-6-yl)acrylamide]	
271 to 272 °C			N#C/C(=C\c1ccc(F)cc1)C(=O)Nc1ccc2c(c1)S(=O)(=O)C=C2 [RMF-1-29, 2-Cyano-N-(1,1-dioxo-1H-1λ^6-benzo[b]thiophen-6-yl)-3-(4-fluorophenyl)acrylamide]	
124 to 125 °C			C[C@H](NC(=O)c1cc(Cl)ccc1O)c1ccccc1 [Compound 9, (S)-5-Chloro-2-hydroxy-N-(1-phenylethyl)benzamide]	
	3.12 µM	3.47 µM	NCCOc1ccc(Cl)cc1C(=O)Nc1ccc2c(c1)S(=O)(=O)C=C2 [HJC-3-93, 2-(2-Amino-ethoxy)-5-chloro-N-(1,1-dioxo-1H-1λ^6-benzo[b]thiophen-6-yl)benzamide]	
	> 10 µM	> 10 µM	COc1ccc(C(=O)Nc2ccc3c(c2)S(=O)(=O)CC3OC)cc1 (stereo not shown) [HJC-2-20, 4-Methoxy-N-(3-methoxy-1,1-dioxo-2,3-dihydro-1H-1λ^6-benzo[b]thiophen-6-yl)benzamide]	
	> 10 µM	> 10 µM	CS(=O)(=O)N(c1ccc(NC(=O)c2cc(Cl)ccc2OC2CCNCC2)c(Cl)c1)S(C)(=O)=O [HJC-4-35-1]	
	> 10 µM	> 10 µM	O=C(Nc1ccc2c(c1)S(=O)(=O)C=C2)c1ccncc1 [HJC-3-80, N-(1,1-Dioxo-1H-1λ^6-benzo[b]thiophen-6-yl)-isonicotinamide]	
	> 10 µM	> 10 µM	CS(=O)(=O)N1CCC(Oc2ccc(Cl)cc2C(=O)Nc2ccc([N+](=O)[O-])cc2Cl)CC1 [HJC-4-24, 5-Chloro-N-(2-chloro-4-nitrophenyl)-2-(1-methanesulfonylpiperidin-4-yloxy)benzamide]	
	> 10 µM	> 10 µM	CC(=O)NCCOc1ccc(Cl)cc1C(=O)Nc1ccc([N+](=O)[O-])cc1Cl [HJC-4-25, 2-(2-Acetylaminoethoxy)-5-chloro-N-(2-chloro-4-nitrophenyl)benzamide]	
	> 10 µM	> 10 µM	CS(=O)(=O)N1CCN(CCOc2ccc(Cl)cc2C(=O)Nc2ccc([N+](=O)[O-])cc2Cl)CC1 [HJC-2-55, 5-Chloro-N-(2-chloro-4-nitrophenyl)-2-[2-(4-methanesulfonylpiperazin-1-yl)-ethoxy]benzamide]	
	2.51 µM	3.74 µM	O=C(Nc1ccc2c(c1)S(=O)(=O)C=C2)c1cc(Cl)ccc1OCCN1CCCCC1 [HJC-3-79, 5-Chloro-N-(1,1-dioxo-1H-1λ^6-benzo[b]thiophen-6-yl)-2-(2-piperidin-1-yl-ethoxy)benzamide]	

Continued, compound first:

Structure (SMILES)	melting point	IC50 [1, 3]	IC50 [2, 4]	further results
N#C/C(=C\c1cccc(Br)c1)C(=O)Nc1ccc2c(c1)S(=O)(=O)C=C2 [RMF-1-32, 3-(3-Bromophenyl)-2-cyano-N-(1,1-dioxo-1H-1λ^6-benzo[b]thiophen-6-yl)acrylamide]	250 to 251 °C			
COc1ncccc1/C=C(\C#N)C(=O)Nc1ccc2c(c1)S(=O)(=O)C=C2 [RMF-1-27, 2-Cyano-N-(1,1-dioxo-1H-1λ^6-benzo[b]thiophen-6-yl)-3-(2-methoxy-pyridin-3-yl)acrylamide]	261 to 262 °C			
N#C/C(=C\c1cccc([N+](=O)[O-])c1)C(=O)Nc1ccc2c(c1)S(=O)(=O)C=C2 [RMF-1-15, 2-Cyano-N-(1,1-dioxo-1H-1λ^6-benzo[b]thiophen-6-yl)-3-(3-nitrophenyl)acrylamide]	269 to 270 °C			
N#C/C(=C\c1ccc(O)cc1)C(=O)Nc1ccc2c(c1)S(=O)(=O)C=C2 [RMF-1-11, 2-Cyano-N-(1,1-dioxo-1H-1λ^6-benzo[b]thiophen-6-yl)-3-(4-hydroxyphenyl)acrylamide]	306 to 307 °C			
O=C(Nc1ccc2c(c1)S(=O)(=O)C=C2)c1c2ccccc2nc2ccccc12	237 to 238 °C			
O=C(Nc1nnc(-c2ccco2)o1)c1cc(Cl)ccc1O [Compound 13, 5-Chloro-N-(5-furan-2-yl-[1,3,4]oxadiazol-2-yl)-2-hydroxybenzamide]	196 to 197 °C			
O=C(Nc1ccc2c(c1)S(=O)(=O)C=C2)c1cc(Cl)ccc1OCCBr [Compound 2]				IC50 ([1]; MDA-MB-231, read-out: IC50 MDA-MB-231 (Table 2)): > 10 µM; IC50 ([2]; Homo sapiens, MCF7, read-out: IC50 MCF-7 (Table 2)): > 10 µM
CN1CCC(Oc2ccc(Cl)cc2C(=O)Nc2ccc([N+](=O)[O-])cc2Cl)CC1 [HJC-3-81, 5-Chloro-N-(2-chloro-4-nitrophenyl)-2-(1-methylpiperidin-4-yloxy)benzamide]				IC50 [1, 5]: 2.69 µM; IC50 [2, 6]: 4.11 µM; inhibition on breast cancer cell proliferation (FIG. 1) ([2]; MCF-7, 48 hr, μM concentrations): significant inhibition
N#C/C(=C\c1ccc(O)c(O)c1)C(=O)Nc1ccc2c(c1)S(=O)(=O)C=C2 [HJC-4-11, 2-Cyano-3-(3,4-dihydroxy-phenyl)-N-(1,1-dioxo-1H-1λ^6-benzo[b]thiophen-6-yl)-acrylamide]				IC50 [1, 5]: > 10 µM; IC50 [2, 6]: 4.27 µM
CN1CCC(Oc2ccc(Cl)cc2C(=O)Nc2ccc3c(c2)S(=O)(=O)C=C3)CC1 [HJC-3-82, 5-Chloro-N-(1,1-dioxo-1H-1λ^6-benzo[b]thiophen-6-yl)-2-(1-methyl-piperidin-4-yloxy) benzamide]				IC50 [1, 5]: 2.68 µM; IC50 [2, 6]: 3.53 µM
N#CCC(=O)Nc1ccc2c(c1)S(=O)(=O)C=C2 [HJC-3-61, 2-Cyano-N-(1,1-dioxo-1H-1λ^6-benzo[b]thiophen-6-yl)acetamide]				IC50 [1, 5]: > 10 µM; IC50 [2, 6]: > 10 µM
O=C(Nc1ccc2c(c1)S(=O)(=O)C=C2)c1cc(Cl)ccc1OCCBr [HJC-3-77, 2-(2-Bromo-ethoxy)-5-chloro-N-(1,1-dioxo-1H-1λ^6-benzo[b]thiophen-6-yl)benzamide]				IC50 [1, 5]: > 10 µM; IC50 [2, 6]: > 10 µM
COC1CS(=O)(=O)c2cc(NC(C)=O)ccc21 (stereo not shown) [HJC-1-63, N-(3-Methoxy-1,1-dioxo-2,3-dihydro-1H-1λ^6-benzo[b]thiophen-6-yl)acetamide]		> 10 µM	> 10 µM	
